Where two headings read alike, the source gives them in different places.
Experiments:
[1] = molecular target: ACE2:SARS-CoV-2 Spike interaction (UniProt P0DTC2+Q9BYF1); experiment: biochemical; format: binding; conditions: IC50, SARS-COV2
[2] = molecular target: SARS-CoV-2 Spike: ACE2 interaction (UniProt P0DTC2+Q9BYF1); experiment: biochemical; format: binding
[3] = Nanoparticle formation of peptides with ADGN-106: mean size and polydispersity (Zetasizer); format: physicochemical; conditions: 25° C.
Description: We then tested the ability of the different peptides to form nanoparticle organization in the presence of ADGN-106 or ADGN-100 peptide. […] Peptides were complexed with 5 or 10 molar excess of ADGN-106.

[4] = Lung and liver toxicity studies after intratracheal instillation; conditions: mouse, in vivo
Experimental: Single dose of peptides or peptide/siRNA complexes were administrated via intratracheal instillation (200 μg) (Table 20). Saline solution was used as negative control. Samples were collected 12, 24, 48 and 72 hr post administration.
The body weight of the mice were recorded before intratracheal instillation (day 0), at day1, day 2 and before being sacrificed (day 3). The lung, liver, heart, kidney and brain were collected at day 3 and organ index were determined.
Bronchoalveolar lavage (BAL) were performed 2 days after instillation. The percentage of the cells, the total protein and level of LDH in the BAL were analyzed.
AST and ALT levels in the plasma were assayed 2 days after instillation.

SARS-CoV-2 [5] = test system: SARS-CoV-2
SARS-CoV-2 [6] = test system: SARS-CoV-2; remark: listed apart in the source
in vitro = conditions: uninfected Vero E6 cells
[7] = In vivo lung biodistribution after intratracheal instillation (fluorescence imaging, confocal microscopy); conditions: administrated intratracheally
Experimental: To monitor DIVC-6 siRNA biodistribution, the siRNA was labelled with Cy-5.5.
In vivo lung biodistribution study was performed in healthy 4 weeks old male C57BL/6J mice. Single dose of peptides or peptide/siRNA complexes were administrated via intratracheal instillation (200 μg) (Table 20). The fluorescence was evaluated by non-invasive in vivo whole-body fluorescence imaging at T0, 1 h, 2 h, 6 h, 24 h, 48 h and 72 hr post injection. Fluorescence images were acquired with the IVIS kinetic system (PerkinElmer) (ex: 640±17 nm; em: 680±10 nm) and semi-quantitative data were obtained from the fluorescence images by using the Living image software (Caliper 2D).
Further analysis of the lung distribution of the different compounds was performed by confocal microscopy. Lungs were collected at 4 hr, 24 hr and 72 hr post administration, fixed in formaldehyde 4% in Glucose 5%. Tissues were stained with Mito tracker red and nucleus with Hoesch.

Chain of SARS-CoV-2 Spike: ACE2 interaction (Q9BYF1 18-740, one chain of several): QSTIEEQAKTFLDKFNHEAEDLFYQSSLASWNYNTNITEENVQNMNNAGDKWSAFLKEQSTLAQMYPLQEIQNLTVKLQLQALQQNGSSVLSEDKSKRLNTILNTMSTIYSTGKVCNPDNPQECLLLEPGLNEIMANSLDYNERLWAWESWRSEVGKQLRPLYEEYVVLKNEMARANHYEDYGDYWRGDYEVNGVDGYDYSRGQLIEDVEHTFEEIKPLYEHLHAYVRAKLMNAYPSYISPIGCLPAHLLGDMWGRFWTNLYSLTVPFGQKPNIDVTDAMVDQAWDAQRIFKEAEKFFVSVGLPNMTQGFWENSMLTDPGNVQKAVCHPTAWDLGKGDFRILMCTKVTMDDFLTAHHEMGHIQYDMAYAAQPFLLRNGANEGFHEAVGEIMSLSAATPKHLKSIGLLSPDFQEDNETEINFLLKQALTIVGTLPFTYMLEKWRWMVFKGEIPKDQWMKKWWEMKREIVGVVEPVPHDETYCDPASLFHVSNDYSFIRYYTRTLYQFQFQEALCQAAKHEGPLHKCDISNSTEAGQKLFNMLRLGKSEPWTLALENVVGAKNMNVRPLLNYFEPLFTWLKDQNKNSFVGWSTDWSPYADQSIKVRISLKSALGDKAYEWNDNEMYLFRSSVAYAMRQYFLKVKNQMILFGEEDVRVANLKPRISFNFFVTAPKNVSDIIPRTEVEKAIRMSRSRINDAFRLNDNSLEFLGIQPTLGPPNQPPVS
Chain of ACE2:SARS-CoV-2 Spike interaction (Q9BYF1 18-740, one chain of several): as above

SMILES: CC(=O)N[C@@H](CCC(=O)O)C(=O)N[C@@H](CCC(N)=O)C(=O)N[C@@H](C)C(=O)N[C@@H](CCCCN)C(=O)N[C@H](C(=O)N[C@@H](Cc1ccccc1)C(=O)N[C@@H](CC(C)C)C(=O)N[C@@H](CC(=O)O)C(=O)N[C@@H](CCCCN)C(=O)N[C@@H](Cc1ccccc1)C(=O)N[C@@H](CC(N)=O)C(=O)N[C@@H](Cc1c[nH]cn1)C(=O)N[C@@H](CCC(=O)O)C(=O)N[C@@H](C)C(=O)N[C@@H](CCC(=O)O)C(=O)N[C@@H](CC(=O)O)C(=O)N[C@@H](CC(C)C)C(=O)N[C@@H](Cc1ccccc1)C(=O)NCCCCCC(=O)N[C@@H](CC(C)C)C(=O)N[C@@H](Cc1c[nH]c2ccccc12)C(=O)N[C@@H](CCCNC(=N)N)C(=O)N[C@@H](C)C(=O)N[C@@H](CC(C)C)C(=O)N[C@@H](Cc1c[nH]c2ccccc12)C(=O)N[C@@H](CCCNC(=N)N)C(=O)N[C@@H](CC(C)C)C(=O)N[C@@H](Cc1c[nH]c2ccccc12)C(=O)N[C@@H](CCCNC(=N)N)C(=O)N[C@@H](CO)C(=O)N[C@@H](CC(C)C)C(=O)N[C@@H](Cc1c[nH]c2ccccc12)C(=O)N[C@@H](CCCNC(=N)N)C(=O)N[C@@H](CC(C)C)C(=O)N[C@@H](CC(C)C)C(=O)N[C@@H](Cc1c[nH]c2ccccc12)C(=O)N[C@@H](CCCCN)C(N)=O)[C@@H](C)O [Seq33]
- IC50 [1]: 18.4 ± 11 nM
- folds more potent than SBP-1-ADGN-106/ADGN-106 complex [2]: 4 folds
- folds more potent than SBP-1 coupled to ADGN-106 [2]: 8 folds
- folds more potent than SBP-1 peptide/ADGN-106 complex [2]: 35 folds
- folds more potent than free SBP-1 [2]: 14 folds
- IC50 ([2]; SARS-CoV-2 Spike:ACE2 IC50): 178 ± 14 nM
- Mean Size (nm) ([3]; peptide/ADGN-106 complexes): 45.9 ± 10 nm
- PI ([3]; polydispersity index of peptide/ADGN-106 complexes): 0.24
- lung and liver toxicity associated to treatment [4]: no lung and liver toxicity
- tolerability upon intratracheal administration [4]: well tolerated
- Residual Infection (%) (SARS-CoV-2 [5]): 15%
- fold stronger anti-SARS-CoV-2 activity than hydroxychloroquine sulfate (SARS-CoV-2 [5]): 250 fold
- increase of potency by pre-incubation with SARS CoV-2 prior infection (SARS-CoV-2 [5]): 2 factor
- inhibition of viral infection (SARS-CoV-2 [5]): exhibit inhibition of viral infection
- IC50 (SARS-CoV-2 [6]; read-out: SARS-COV2 IC50, original strain, second Table 19, siRNA complexed at molar ratio 1/20): 21.7 ± 8 nM
- IC50 (SARS-CoV-2 [6]; treatments added to Vero-E6 immediately prior to virus infection, Table 16): 22.9 ± 8 nM
- CC50 (in vitro): 510000 ± 31000 nM
- viability at 0.5 µM (in vitro): 94%
- lung targeting and tissue penetration [7]: significantly penetrate lung tissue

Reference: US20230304010A1, “COMPOSITIONS AND METHODS FOR TREATING VIRAL INFECTIONS” (priority 2020, published 2023)
